Ki data for one compound are collected here from BindingDB's records for patent US20240002393 (Hoffmann-La Roche, 2024).

The target in assay [1] is T1, Gamma-aminobutyric acid receptor subunit alpha-2/beta-2/gamma-1 (Human, UniProt P47869+P47870+Q8N1C3).
T1 sequence (Q8N1C3 whole entry): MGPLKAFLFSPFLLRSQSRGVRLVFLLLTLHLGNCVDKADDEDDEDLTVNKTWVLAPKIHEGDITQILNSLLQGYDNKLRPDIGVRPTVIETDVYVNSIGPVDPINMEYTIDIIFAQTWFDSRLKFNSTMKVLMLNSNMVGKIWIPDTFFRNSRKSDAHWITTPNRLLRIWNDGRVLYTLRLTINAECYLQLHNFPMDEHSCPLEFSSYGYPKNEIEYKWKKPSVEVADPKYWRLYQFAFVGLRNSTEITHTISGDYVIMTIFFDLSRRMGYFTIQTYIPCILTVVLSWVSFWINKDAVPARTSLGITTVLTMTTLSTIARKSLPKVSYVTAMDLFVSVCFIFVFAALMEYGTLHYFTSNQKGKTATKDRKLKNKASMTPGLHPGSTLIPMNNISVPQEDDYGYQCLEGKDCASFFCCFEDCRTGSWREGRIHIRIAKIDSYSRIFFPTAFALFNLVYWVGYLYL
T1 sequence (P47869 whole entry): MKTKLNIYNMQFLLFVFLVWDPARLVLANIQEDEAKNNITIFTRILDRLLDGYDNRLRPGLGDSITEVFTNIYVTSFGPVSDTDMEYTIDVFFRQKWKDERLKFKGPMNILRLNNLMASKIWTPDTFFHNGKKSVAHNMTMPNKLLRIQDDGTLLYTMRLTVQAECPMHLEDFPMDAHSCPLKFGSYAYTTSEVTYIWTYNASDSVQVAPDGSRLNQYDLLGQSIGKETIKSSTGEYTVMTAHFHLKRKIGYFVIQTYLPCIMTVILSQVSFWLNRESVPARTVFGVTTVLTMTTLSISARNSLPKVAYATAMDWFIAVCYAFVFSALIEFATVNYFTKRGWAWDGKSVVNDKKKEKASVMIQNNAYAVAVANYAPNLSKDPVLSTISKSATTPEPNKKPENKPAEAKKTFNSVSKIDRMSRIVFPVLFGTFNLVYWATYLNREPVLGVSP
T1 sequence (P47870 whole entry): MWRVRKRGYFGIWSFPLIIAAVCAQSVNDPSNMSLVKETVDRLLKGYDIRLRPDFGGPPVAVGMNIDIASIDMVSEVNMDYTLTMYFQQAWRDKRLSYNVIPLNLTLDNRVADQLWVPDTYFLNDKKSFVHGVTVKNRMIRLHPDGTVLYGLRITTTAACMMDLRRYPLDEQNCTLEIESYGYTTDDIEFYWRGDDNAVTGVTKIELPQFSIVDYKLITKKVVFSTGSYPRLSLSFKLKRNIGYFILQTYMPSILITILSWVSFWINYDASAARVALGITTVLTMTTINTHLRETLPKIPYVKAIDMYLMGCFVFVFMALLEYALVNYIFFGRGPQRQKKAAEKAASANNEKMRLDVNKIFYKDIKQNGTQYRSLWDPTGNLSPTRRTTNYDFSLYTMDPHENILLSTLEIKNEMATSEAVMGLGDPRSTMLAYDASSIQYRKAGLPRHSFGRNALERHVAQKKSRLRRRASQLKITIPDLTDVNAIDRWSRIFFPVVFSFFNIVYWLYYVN
The assay can be described thus: Electrophysiology Assay. Here is the method: Table 2: Electrophysiological experiments were performed using the Roboocyte instrument (MultiChannelSystems, Reutlingen, Germany) on days 3 to 5 after the micro-injection of mRNA. During the experiment the oocytes were constantly superfused by a solution containing (in mM) NaCl 90, KCl 1, HEPES 5, MgCl2 1 CaCl2 1 (pH 7.4). Oocytes were impaled by two glass microelectrodes (resistance: 0.5-0.8 MΩ) which were filled with a solution containing KCl 1M+K-acetate 1.5 M and voltage-clamped to −80 mV. The recordings were performed at room temperature using the Roboocyte two-electrode voltage clamp system (Multichannelsystem). After an initial equilibration period of 1.5 min GABA was added for 1.5 min at a concentration evoking approximately 20% of a maximal current response (EC20). After another rest interval of 2.5 min GABA was again added evoking a response of similar amplitude and shape. […] Current traces were recorded at a digitization rate of 10 Hz during and shortly before and after the GABA application.

Assay [2] has as its target T2, Gamma-aminobutyric acid receptor subunit alpha-1/beta-3/gamma-2 (Homo sapiens, UniProt P14867+P18507+P28472).
T2 sequence (P14867 whole entry): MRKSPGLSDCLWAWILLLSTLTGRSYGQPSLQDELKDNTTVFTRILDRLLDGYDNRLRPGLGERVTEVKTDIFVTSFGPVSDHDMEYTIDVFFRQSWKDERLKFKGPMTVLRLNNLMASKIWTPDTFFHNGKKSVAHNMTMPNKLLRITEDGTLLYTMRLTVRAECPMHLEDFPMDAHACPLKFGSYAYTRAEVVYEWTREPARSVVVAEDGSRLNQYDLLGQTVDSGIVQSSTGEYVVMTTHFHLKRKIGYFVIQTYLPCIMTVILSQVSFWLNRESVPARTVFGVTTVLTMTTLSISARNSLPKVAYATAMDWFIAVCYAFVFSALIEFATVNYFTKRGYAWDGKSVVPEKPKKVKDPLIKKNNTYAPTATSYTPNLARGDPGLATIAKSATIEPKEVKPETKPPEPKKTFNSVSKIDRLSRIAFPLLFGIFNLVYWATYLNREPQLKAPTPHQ
T2 sequence (P18507 whole entry): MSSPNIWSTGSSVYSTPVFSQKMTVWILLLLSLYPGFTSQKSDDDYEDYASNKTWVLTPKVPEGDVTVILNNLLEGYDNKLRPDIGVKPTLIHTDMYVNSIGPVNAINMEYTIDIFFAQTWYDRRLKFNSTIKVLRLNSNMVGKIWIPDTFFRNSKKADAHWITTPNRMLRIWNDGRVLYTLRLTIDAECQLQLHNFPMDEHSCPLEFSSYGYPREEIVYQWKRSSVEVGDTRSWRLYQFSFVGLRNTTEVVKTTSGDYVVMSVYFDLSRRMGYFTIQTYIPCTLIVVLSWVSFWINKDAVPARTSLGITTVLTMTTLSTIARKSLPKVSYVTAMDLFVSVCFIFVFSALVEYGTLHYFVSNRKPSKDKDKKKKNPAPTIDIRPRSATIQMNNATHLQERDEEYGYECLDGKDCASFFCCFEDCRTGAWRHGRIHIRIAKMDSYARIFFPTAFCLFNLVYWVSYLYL
T2 sequence (P28472 whole entry): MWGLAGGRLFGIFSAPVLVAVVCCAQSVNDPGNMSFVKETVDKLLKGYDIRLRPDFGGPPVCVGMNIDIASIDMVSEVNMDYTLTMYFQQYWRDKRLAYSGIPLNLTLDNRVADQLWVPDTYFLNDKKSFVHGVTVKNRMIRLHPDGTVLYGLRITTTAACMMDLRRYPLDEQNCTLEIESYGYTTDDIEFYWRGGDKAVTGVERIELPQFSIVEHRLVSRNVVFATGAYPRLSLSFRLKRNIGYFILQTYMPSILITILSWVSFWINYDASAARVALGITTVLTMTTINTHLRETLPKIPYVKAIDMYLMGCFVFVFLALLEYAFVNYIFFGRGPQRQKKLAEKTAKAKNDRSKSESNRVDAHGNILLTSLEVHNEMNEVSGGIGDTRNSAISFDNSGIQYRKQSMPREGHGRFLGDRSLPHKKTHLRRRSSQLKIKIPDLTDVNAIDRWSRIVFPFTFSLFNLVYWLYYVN

With `CCc1nnc2n1-c1ccc(C(F)(F)F)c(Cl)c1C(c1c(F)cccc1F)=N[C@H]2C` [US20240002393, Example 108], the Ki (usually the dissociation constant of the complex between target and ligand, obtained from inhibition or displacement) in assay [1] was found to be 47 nM; in assay [2], 2370 nM.
